From patent US12686665B2, “Bicyclic fused ring derivative or salt thereof and pharmaceutical composition comprising same” (YUHAN CORPORATION, priority 2021, dated 2026)
Counter-ions that a name gives are not always drawn.

Target: T1, recombinant human Lysyl Oxidase-Like 2 (LOXL2) (Homo sapiens, UniProt Q9Y4K0)
T1 construct: purchased R&D systems
T1 sequence (Q9Y4K0 26-774): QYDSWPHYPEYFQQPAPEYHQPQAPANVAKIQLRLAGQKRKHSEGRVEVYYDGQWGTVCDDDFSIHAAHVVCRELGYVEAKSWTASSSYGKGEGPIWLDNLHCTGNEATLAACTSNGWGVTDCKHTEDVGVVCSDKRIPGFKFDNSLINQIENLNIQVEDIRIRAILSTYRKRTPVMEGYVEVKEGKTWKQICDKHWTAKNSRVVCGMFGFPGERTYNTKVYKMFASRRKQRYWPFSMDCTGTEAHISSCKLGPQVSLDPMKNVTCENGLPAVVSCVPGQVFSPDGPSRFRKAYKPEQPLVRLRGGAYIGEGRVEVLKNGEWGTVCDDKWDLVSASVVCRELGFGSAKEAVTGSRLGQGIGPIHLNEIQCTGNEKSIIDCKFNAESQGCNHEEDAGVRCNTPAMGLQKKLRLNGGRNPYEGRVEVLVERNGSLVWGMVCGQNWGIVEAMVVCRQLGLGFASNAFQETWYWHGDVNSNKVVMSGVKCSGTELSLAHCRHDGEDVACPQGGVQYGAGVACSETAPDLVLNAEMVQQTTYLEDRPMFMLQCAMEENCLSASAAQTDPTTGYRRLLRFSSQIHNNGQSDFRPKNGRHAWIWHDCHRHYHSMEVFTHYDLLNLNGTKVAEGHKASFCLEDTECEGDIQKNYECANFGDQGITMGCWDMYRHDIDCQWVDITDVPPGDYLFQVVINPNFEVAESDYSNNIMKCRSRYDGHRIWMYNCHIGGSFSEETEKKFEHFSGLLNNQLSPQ
Assay: Amplex Red HRP-coupled amine oxidase assay, recombinant human LOXL2
Type: biochemical
Conditions: 60 min incubation with enzyme at 37° C., putrescine substrate, read-out: Inhibitory activity (IC50, nM) human LOXL2
Procedure: (§1) The activities of the compounds according to the present invention against recombinant human Lysyl Oxidase-Like 2 (recombinant human LOXL2, R&D systems) were evaluated by measuring the levels of hydrogen peroxide in the HRP (horseradish peroxidase) coupled reactions, with the Amplex Red Hydrogen Peroxide Assay Kit (Molecular Probes, Invitrogen, USA). The tests were carried out at 37° C., and putrescine was used as a substrate. In the HRP coupling reaction, the oxidation of 10-acetyl-3,7-dihydroxyphenoxazine (Amplex Red reagent) by hydrogen peroxide generates a fluorescent product, i.e., resorufin. Briefly, the test compounds were dissolved in dimethyl sulfoxide (DMSO) at a concentration of 20 mM. Dose-response measurements were carried out by serial dilutions in DMSO to generate a six-point curve. The upper concentration was adjusted according to the potency of the compound, and then diluted with the reaction buffer to obtain a final DMSO concentration of 1%. Purified human LOXL2 in 50 mM sodium phosphate buffer (pH7.4) was added to each well of a 96 well black plate. The test compounds dissolved in DMSO were incubated with the human LOXL2 enzyme at 37° C. for 60 minutes. After the incubation for 60 minutes, a reaction mixture containing 400 μM Amplex Red reagent, 30 mM putrescine, and 2 U/mL HRP in 50 mM sodium phosphate buffer (pH 7.4) was added to each well. Fluorescence was measured with a microplate reader (Flexstation3, Molecular Devices), under the conditions of excitation at 530 nm and emission at 590 nm, 1 hour after the addition of the mixture. Inhibition by each compound was measured as % reduction in signal, compared to the control without an inhibitor (diluted DMSO only). The data were fixed to a four-variable logistic model, and […] values were calculated using the GraphPad Prism program.

| IC50 [nM] | SMILES |
| --- | --- |
| 464 | N#Cc1cc(-c2cccnc2)c2ncn(C/C(F)=C/CN)c2c1 [Example 187, (Z)-1-(4-amino-2-fluorobut-2-en-1-yl)-4-(pyridin-3-yl)-1H-benzo[d]imidazol-6-carbonitrile hydrochloride] |
| 131 | N#Cc1cc(-c2cncc(F)c2)c2ncn(C/C(F)=C/CN)c2c1 [Example 188, (Z)-1-(4-amino-2-fluorobut-2-en-1-yl)-4-(5-fluoropyridin-3-yl)-1H-benzo[d]imidazol-6-carbonitrile hydrochloride] |
| 92.8 | N#Cc1cc(-c2cncc(Cl)c2)c2ncn(C/C(F)=C/CN)c2c1 [Example 189, (Z)-1-(4-amino-2-fluorobut-2-en-1-yl)-4-(5-chloropyridin-3-yl)-1H-benzo[d]imidazol-6-carbonitrile hydrochloride] |
| 117 | N#Cc1cc(-c2cncnc2)c2ncn(C/C(F)=C/CN)c2c1 [Example 190, (Z)-1-(4-amino-2-fluorobut-2-en-1-yl)-4-(pyrimidin-5-yl)-1H-benzo[d]imidazol-6-carbonitrile hydrochloride] |
| 204 | Cn1nc(C(F)(F)F)cc1-c1cc(C#N)cc2c1ncn2C/C(F)=C/CN [Example 193, (Z)-1-(4-amino-2-fluorobut-2-en-1-yl)-4-(1-methyl-3-(trifluoromethyl)-1H-pyrazol-5-yl)-1H-benzo[d]imidazol-6-carbonitrile hydrochloride] |
| 34 | CN(C)S(=O)(=O)c1cccc(-c2cc(C(F)(F)F)cc3c2nnn3C/C(F)=C/CN)c1 [Example 196, (Z)-3-(1-(4-amino-2-fluorobut-2-en-1-yl)-6-(trifluoromethyl)-1H-benzo[d][1,2,3]triazol-4-yl)—N,N-dimethylbenzenesulfonamide hydrochloride] |
| 308 | CC(=O)c1ccc(F)c(-c2cc(C(F)(F)F)cc3c2nnn3C/C(F)=C/CN)c1 [Example 197, (Z)-1-(3-(1-(4-amino-2-fluorobut-2-en-1-yl)-6-(trifluoromethyl)-1H-benzo[d][1,2,3]triazol-4-yl)-4-fluorophenyl)ethan-1-one hydrochloride] |
| 226 | NC/C=C(\F)Cn1nnc2c(-c3cc(CO)ccc3F)cc(C(F)(F)F)cc21 [Example 198, (Z)-(3-(1-(4-amino-2-fluorobut-2-en-1-yl)-6-(trifluoromethyl)-1H-benzo[d][1,2,3]triazol-4-yl)-4-fluorophenyl)methanol hydrochloride] |
| 305 | NC/C=C(\F)Cn1nnc2c(-c3cccc(CO)c3Cl)cc(C(F)(F)F)cc21 [Example 199, (Z)-(3-(1-(4-amino-2-fluoro-2-en-1-yl)-6-(trifluoromethyl)-1H-benzo[d][1,2,3]triazol-4-yl)-2-chlorophenyl)methanol hydrochloride] |
| 330 | NC/C=C(\F)Cn1nnc2c(-c3cncc(F)c3)cc(C(F)(F)F)cc21 [Example 200, (Z)-3-fluoro-4-(4-(5-fluoropyridin-3-yl)-6-(trifluoromethyl)-1H-benzo[d][1,2,3]triazol-1-yl)but-2-en-1-amine hydrochloride] |
| 142 | NC/C=C(\F)Cn1nnc2c(-c3cncc(Cl)c3)cc(C(F)(F)F)cc21 [Example 201, (Z)-4-(4-(5-chloropyridin-3-yl)-6-(trifluoromethyl)-1H-benzo[d][1,2,3]triazol-1-yl)-3-fluorobut-2-en-1-amine hydrochloride] |
| 190 | NC/C=C(\F)Cn1nnc2c(-c3cncnc3)cc(C(F)(F)F)cc21 [Example 202, (Z)-3-fluoro-4-(4-(pyrimidin-5-yl)-6-(trifluoromethyl)-1H-benzo[d][1,2,3]triazol-1-yl)but-2-en-1-amine hydrochloride] |
| 351 | CCn1nccc1-c1cc(C(F)(F)F)cc2c1nnn2C/C(F)=C/CN [Example 203, (Z)-4-(4-(1-ethyl-1H-pyrazol-5-yl)-6-(trifluoromethyl)-1H-benzo[d][1,2,3]triazol-1-yl)-3-fluorobut-2-en-1-amine hydrochloride] |
| 497 | Cc1cc(-c2cc(C(F)(F)F)cc3c2nnn3C/C(F)=C/CN)n(C)n1 [Example 204, (Z)-4-[4-(1,3-dimethyl-1H-pyrazol-5-yl)-6-(trifluoromethyl)-1H-benzo[d][1,2,3]triazol-1-yl]-3-fluorobut-2-en-1-amine hydrochloride] |
| 182 | NC/C=C(\F)Cn1nnc2c(-c3cnn(CCO)c3)cc(C(F)(F)F)cc21 [Example 205, (Z)-2-(4-(1-(4-amino-2-fluorobut-2-en-1-yl)-6-(trifluoromethyl)-1H-benzo[d][1,2,3]triazol-4-yl]-1H-pyrazol-1-yl)ethan-1-ol hydrochloride] |
| 200 | N#Cc1cc(-c2cc(CO)ccc2F)c2nnn(C/C(F)=C/CN)c2c1 [Example 206, (Z)-1-(4-amino-2-fluorobut-2-en-1-yl)-4-[2-fluoro-5-(hydroxymethyl)phenyl]-1H-benzo[d][1,2,3]triazol-6-carbonitrile hydrochloride] |
| 281 | N#Cc1cc(-c2cccc(CO)c2Cl)c2nnn(C/C(F)=C/CN)c2c1 [Example 207, (Z)-1-(4-amino-2-fluorobut-2-en-1-yl)-4-[2-chloro-3-(hydroxymethyl)phenyl-1H-benzo[d][1,2,3]triazol-6-carbonitrile hydrochloride] |
| 270 | N#Cc1cc(-c2cncc(F)c2)c2nnn(C/C(F)=C/CN)c2c1 [Example 208, (Z)-1-(4-amino-2-fluorobut-2-en-1-yl)-4-(5-fluoropyridin-3-yl)-1H-benzo[d][1,2,3]triazol-6-carbonitrile hydrochloride] |
| 86.8 | N#Cc1cc(-c2cncc(Cl)c2)c2nnn(C/C(F)=C/CN)c2c1 [Example 209, (Z)-1-(4-amino-2-fluorobut-2-en-1-yl)-4-(5-chloropyridin-3-yl)-1H-benzo[d][1,2,3]triazol-6-carbonitrile hydrochloride] |
| 264 | N#Cc1cc(-c2cncnc2)c2nnn(C/C(F)=C/CN)c2c1 [Example 210, (Z)-1-(4-amino-2-fluorobut-2-en-1-yl)-4-(pyrimidin-5-yl)-1H-benzo[d][1,2,3]triazol-6-carbo nitrile hydrochloride] |

Target: T2, recombinant human DAO (diamine oxidase) (Homo sapiens, UniProt P19801)
T2 construct: purchased R&D systems
T2 sequence (P19801 20-751): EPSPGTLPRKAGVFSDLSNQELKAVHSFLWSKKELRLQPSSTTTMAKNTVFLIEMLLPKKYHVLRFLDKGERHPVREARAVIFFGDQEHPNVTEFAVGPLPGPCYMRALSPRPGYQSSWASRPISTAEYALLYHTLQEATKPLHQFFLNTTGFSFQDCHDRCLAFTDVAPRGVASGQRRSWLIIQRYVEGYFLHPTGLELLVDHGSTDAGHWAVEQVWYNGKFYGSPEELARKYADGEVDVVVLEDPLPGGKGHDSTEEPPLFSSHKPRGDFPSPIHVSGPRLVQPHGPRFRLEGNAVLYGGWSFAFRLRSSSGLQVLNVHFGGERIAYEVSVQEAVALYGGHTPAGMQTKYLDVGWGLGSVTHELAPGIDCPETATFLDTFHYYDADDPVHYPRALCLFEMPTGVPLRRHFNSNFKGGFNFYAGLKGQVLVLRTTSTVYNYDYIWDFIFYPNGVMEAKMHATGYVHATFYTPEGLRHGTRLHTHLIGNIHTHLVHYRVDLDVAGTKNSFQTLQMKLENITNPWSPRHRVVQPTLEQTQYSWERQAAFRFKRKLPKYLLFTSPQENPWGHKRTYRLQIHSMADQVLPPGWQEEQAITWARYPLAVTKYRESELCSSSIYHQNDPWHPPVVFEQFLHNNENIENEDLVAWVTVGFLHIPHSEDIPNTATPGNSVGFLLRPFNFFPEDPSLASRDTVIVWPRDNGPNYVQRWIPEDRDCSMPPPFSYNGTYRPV
Assay: Amplex Red HRP-coupled amine oxidase assay, recombinant human DAO
Type: biochemical
Conditions: 1 mM putrescine substrate, read-out: Inhibitory activity (IC50, nM) DAO
Procedure: as §1
And, the activities of the compounds according to the present invention against recombinant human MAO-A (monoamine oxidase-A, Sigma-Aldrich) and recombinant human MAO-B (monoamine oxidase-B, Sigma-Aldrich) were evaluated in a similar manner to the activity evaluation method for recombinant human LOXL2, using 0.5 mM tyramine and 1 mM benzylamine as a substrate, respectively. In addition, the activities of the compounds according to the present invention against recombinant human DAO (diamine oxidase, R&D systems) were evaluated in a similar manner to the activity evaluation method for recombinant human LOXL2, using 1 mM putrescine as a substrate.

| IC50 [nM] | SMILES |
| --- | --- |
| 3150 | CN(C)S(=O)(=O)c1cccc(-c2cc(C(F)(F)F)cc3c2nnn3C/C(F)=C/CN)c1 [Example 196, (Z)-3-(1-(4-amino-2-fluorobut-2-en-1-yl)-6-(trifluoromethyl)-1H-benzo[d][1,2,3]triazol-4-yl)—N,N-dimethylbenzenesulfonamide hydrochloride] |
| 1960 | N#Cc1cc(-c2cc(CO)ccc2F)c2nnn(C/C(F)=C/CN)c2c1 [Example 206, (Z)-1-(4-amino-2-fluorobut-2-en-1-yl)-4-[2-fluoro-5-(hydroxymethyl)phenyl]-1H-benzo[d][1,2,3]triazol-6-carbonitrile hydrochloride] |
| 7440 | N#Cc1cc(-c2cccc(CO)c2Cl)c2nnn(C/C(F)=C/CN)c2c1 [Example 207, (Z)-1-(4-amino-2-fluorobut-2-en-1-yl)-4-[2-chloro-3-(hydroxymethyl)phenyl-1H-benzo[d][1,2,3]triazol-6-carbonitrile hydrochloride] |
| 432 | N#Cc1cc(-c2cncnc2)c2nnn(C/C(F)=C/CN)c2c1 [Example 210, (Z)-1-(4-amino-2-fluorobut-2-en-1-yl)-4-(pyrimidin-5-yl)-1H-benzo[d][1,2,3]triazol-6-carbo nitrile hydrochloride] |
